Reference: PubChem BioAssay AID651549 (Sanford-Burnham Center for Chemical Genomics, 2012)
Active and inactive are the calls of the source.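 How the source made its calls: active means compounds blocking the PEG3 reporter with IC50 up to 10 µM at either incubation, yet sparing the GAPDH control reporter; inactive means the rest.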

Assay: GAPDH and PEG-3 promoter luciferase suppression – cell-based, luminescence, set 2, counter-screen for PEG-3 promoter inhibitor project, dose response (AID 651549)
Conditions: HeLa PEG-Prom-luciferase or GAPDH-reporter, 6/24 h

Row | Compound | IC50 (GAPDH, run 1, 6 h) | IC50 (GAPDH, run 1, 24 h) | IC50 (PEG-3, run 1, 6 h) | IC50 (PEG-3, run 1, 24 h)
1 | O=C(Nc1cccc(-c2ccc(N3CCCCC3)nn2)c1)C(F)(F)F | 3.5 µM | inactive | 5.36 µM | 8.67 µM
2 | CCOc1ccc(-n2cc(-c3ccccc3)c3c(N4CCOCC4)ncnc32)cc1 | > 99 µM (inactive) | > 99 µM (inactive) | > 99 µM (inactive) | > 99 µM (inactive)
3 | CCC(C)(C)c1ccc(Oc2ccc(N)cc2)cc1 | 5.21 µM | 0.566 µM | 7.48 µM | 7.31 µM
4 | Cc1nc2c(-c3ccc(Cl)cc3)c(C)[nH]n2c(=O)c1Cc1ccccc1 | inactive | 1.74 µM | > 99 µM (inactive) | 2.21 µM
5 | O=C(O)c1ccc(Nc2nc3c(s2)CCCC3)cc1 | 8.49 µM | 9.1 µM | inactive | inactive
6 | CC(=O)OC1(C)CC(C)C(=O)C(C(O)CC2CC(=O)NC(=O)C2)C1 (stereo not drawn) | < 1 µM | < 1 µM | < 1 µM | 0.353 µM
7 | Nc1ncn([C@@H]2O[C@H](CO)[C@@H](O)[C@H]2O)c(=O)n1 | 2.73 µM | 0.557 µM | inactive | inactive
8 | CCc1ccn2cc(-c3ccc4c(c3)OCO4)nc2c1 | 2.23 µM | inactive | 2.12 µM | 5.02 µM
9 | COC1CC(C)C(OC)c2cc(O)cc(c2O)NC(=O)C(C)=CC=CC(C)C(OC(N)=O)C(C)=CC(C)C1OC (stereo not drawn) | inactive | inactive | inactive | inactive
10 | Cc1ccc(C)c(S(=O)(=O)N2CCN(c3ncnc4sccc34)CC2)c1 | inactive | 2.54 µM | inactive | 2.18 µM
11 | O=C(O)CSCC(=O)Nc1ccc(C2CCCCC2)cc1 | 5.37 µM | 0.307 µM | 5.56 µM | 4.57 µM
12 | Cc1c(/C(O)=C2/C(=O)C(=O)N(Cc3cccnc3)C2c2ccccn2)cnn1-c1ccccc1 (stereo not drawn) | 1.01 µM | 1.92 µM | 1.58 µM | 5.27 µM
13 | CN1CCC2(CC1)N=C(c1ccc(F)cc1)C(=S)N2C(=O)c1ccc(C(C)(C)C)cc1 | inactive | inactive | inactive | inactive
14 | CS(=O)(=O)c1ccc(-c2sc3ccccc3c2C#CCCO)cc1 | inactive | inactive | inactive | inactive
15 | O=C(Nc1ccccc1C(=O)Nc1nnc(C(F)(F)F)s1)c1ccccc1 | 1.41 µM | 7.02 µM | > 99 µM (inactive) | inactive

Second part, the compound after the results:

Row | IC50 (GAPDH, run 1, 6 h) | IC50 (GAPDH, run 1, 24 h) | IC50 (PEG-3, run 1, 6 h) | IC50 (PEG-3, run 1, 24 h) | Compound
16 | 8.44 µM | inactive | 9.65 µM | 3.38 µM | C=CCn1c(C)cc(C(=O)COc2ccc(C)nc2[N+](=O)[O-])c1C
17 | 1.16 µM | 1.68 µM | 1.05 µM | 0.798 µM | COc1ccc(Nc2ncnc3ccc(Br)cc23)c(OC)c1
18 | inactive | 9.11 µM | inactive | inactive | Cn1c(Cl)cnc1C1CC(=O)c2cc(Cl)ccc2O1 (stereo not drawn)
19 | inactive | 4.79 µM | > 99 µM (inactive) | inactive | Cc1cc(C)c(C)c(S(=O)(=O)N2CCN(C(=O)c3cc(=O)[nH]c4ccccc34)CC2)c1C
20 | inactive | > 99 µM (inactive) | inactive | > 99 µM (inactive) | Cc1ccc(-c2cn3nc(C)c(C)nc3n2)cc1
21 | inactive | 1.85 µM | > 99 µM (inactive) | 4.62 µM | Cc1cc(C)cc(NS(=O)(=O)c2ccc3c(c2)c(=O)n(C)c(=O)n3C)c1
22 | inactive | inactive | inactive | inactive | COCCn1c(C)cc(C(=O)COc2ccc(C)nc2[N+](=O)[O-])c1C
23 | inactive | 6.39 µM | > 99 µM (inactive) | 8.47 µM | Cc1cccc(NC(=O)c2oc3ccc(S(=O)(=O)N4CCOCC4)cc3c2C)c1C
24 | 1.07 µM | 3.41 µM | 3.63 µM | 4.17 µM | COc1ccc(C(=O)Nc2ccc(C)cn2)c(OC)c1
25 | 3.81 µM | 1.98 µM | > 99 µM (inactive) | 1.96 µM | Cc1ccc2nc(NC(=O)CSCC(=O)OCC(=O)c3ccc(Br)cc3)sc2c1
26 | 7.74 µM | inactive | inactive | inactive | Cc1cc(C(=O)Nc2cccc(C(=O)O)c2)oc1C
27 | inactive | 4.9 µM | > 99 µM (inactive) | 7.83 µM | Cc1cc2cc(CCNC(=O)C(=O)c3c[nH]c4ccccc34)c(=O)[nH]c2cc1C
